Our source for the Inhibition values is ChEMBL document CHEMBL1121433, “New cyclopenta[a]naphthalene derivatives. Synthesis of 2-(carbamylmethyl)-8-hydroxy-3H-cyclopental[a]naphthalene as a possible deoxyribonucleic acid binding agent” (1980).

What is called Inhibition is the relative decrease from the control value, in per cent.

One experiment relates to CCRF-CEM. Description: Tested for inhibition of compound against growth of CCRF-CEM cells at 1.0E-4 M. It is filed as functional, Homo sapiens.
The test system of the next experiment is L1210. Description: Tested for inhibition of compound against growth of L1210 cells at 3.2E-5 M. It is filed as functional, Mus musculus.

`NC(=O)CC1=Cc2c(ccc3ccc(O)cc23)C1`: the Inhibition with CCRF-CEM and in the experiment on L1210 was 25% each time.
